Data published in patent US8669249B2, “Poly (ADP-ribose) polymerase (PARP) inhibitors” (Takeda Pharmaceutical Company Limited, priority 2009, dated 2014).

The molecules below were run against T1, catalytic domain of Human PARP (Homo sapiens, UniProt P09874) (assay: Biacore surface plasmon resonance affinity assay). Conditions: pKD=-log10 KD, KD in mol/L; Biacore T100, 25° C.; read-out: pKD (converted).
T1 construct: The catalytic domain of Human PARP was cloned and prepared; made in house
Type: binding
Experimental: Dissociation Constant (KD) from Surface Plasmon Resonance
The catalytic domain of Human PARP was cloned and prepared as described in Kinoshita, et al. FEBS Letters (2006), 556:43-46. Purified enzyme was stored at −80° C. in 25 mM Tris(hydroxymethyl)aminomethane (‘Tris’) pH 7.4, 150 mM NaCl, 2 mM dithiothreitol (DTT) at a concentration of 6 mg/mL.
Biacore affinity assays for test compounds were conducted on a Biacore T100 (GE Healthcare) as follows. A Series S Sensor Chip CM5 (part number BR-1006-68, GE Healthcare) was activated for amide coupling with an Amine Coupling Kit (part number BR-1000-50, GE Healthcare) as described by the manufacturer. The mobile phase buffer consisted of Biacore buffer HBS-P (part number BR-1003-68, GE Healthcare) supplemented with 1% v/v dimethylsulfoxide (DMSO), 0.5 mM Tris(2-carboxyethyl)phosphine hydrochloride (TCEP), and 5 mM MgCl2. Enzyme samples (2 μL/6 mg/mL) stored at −80° C. were diluted to 0.080 mg/mL with 10 mM 4-morpholineethanesulfonic acid (MES) pH 6.5 and then mounted on the activated Biacore CM5 chip at a flow rate of 10 μL/min for 240 seconds. […] Test compounds were diluted 9 times 2-fold serially in mobile phase buffer (listed above) at 1% v/v DMSO final to generate a concentration gradient bracketing their anticipated KDs. Biacore mounted PARP was given a 1 minute exposure (association phase) to various concentrations of test compounds to observe a steady state equilibrium or an on-rate. The exposure was followed with a dissociation phase of 5 minutes. The association and dissociation phases were at a flow rate of 50 μL/min and a temperature of 25° C.
Parameters Rmax (response at saturation) and KD (binding constant) were calculated through a nonlinear least squares fitting of the equation to the data by use of the Biacore T100 analysis software.
Parameter optimization was through a nonlinear least squares analysis of the association phase Response=Rmax*(1−exp(−(kon[cmpd]+koff)*t)) and dissociation phase Response=[…] by use of the Biacore T100 analysis software. The binding constant KD was calculated from the definition KD=koff/kon

T1 sequence (P09874 788-1014 limits assumed): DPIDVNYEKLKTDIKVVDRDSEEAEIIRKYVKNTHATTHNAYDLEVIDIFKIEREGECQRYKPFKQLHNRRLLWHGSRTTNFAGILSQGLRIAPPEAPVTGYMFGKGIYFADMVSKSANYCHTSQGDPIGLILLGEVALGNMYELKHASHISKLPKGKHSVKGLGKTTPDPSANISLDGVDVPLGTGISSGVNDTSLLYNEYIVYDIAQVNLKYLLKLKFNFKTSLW

Kd [µM] | Structure (SMILES)
1.26 to 10 | CC1Oc2ccc(CN(C)CC(=O)O)cc2NC1=O (centres unmarked) [Compound 132, 2-(Methyl((2-methyl-3-oxo-3,4-dihydro-2H-benzo[b][1,4]oxazin-6-yl)methyl)amino)acetic acid]
1.26 to 10 | CC1Oc2ccc(CN(C)CC(=O)NCc3ccccc3)cc2NC1=O (centres unmarked) [Compound 134, N-Benzyl-2-(methyl((2-methyl-3-oxo-3,4-dihydro-2H-benzo[b][1,4]oxazin-6-yl)methyl)amino)acetamide]
12.6 to 79.4 | CC1Oc2ccc(CN(C)CC(=O)N(C)Cc3ccccc3)cc2NC1=O (centres unmarked) [Compound 135, N-Benzyl-N-methyl-2-(methyl((2-methyl-3-oxo-3,4-dihydro-2H-benzo[b][1,4]oxazin-6-yl)methyl)amino)acetamide]
1.26 to 10 | CC1Oc2ccc(CN(C)CC(=O)NCc3ccc(Cl)cc3)cc2NC1=O (centres unmarked) [Compound 136, N-(4-Chlorobenzyl)-2-(methyl((2-methyl-3-oxo-3,4-dihydro-2H-benzo[b][1,4]oxazin-6-yl)methyl)amino)acetamide]
≥ 100 | CC1Oc2ccc(CN(C)CC(=O)N(C)Cc3ccc(Cl)cc3)cc2NC1=O (centres unmarked) [Compound 137, N-(4-Chlorobenzyl)-N-methyl-2-(methyl((2-methyl-3-oxo-3,4-dihydro-2H-benzo[b][1,4]oxazin-6-yl)methyl)amino)acetamide]
12.6 to 79.4 | CC1Oc2ccc(CN(C)CC(=O)N3CCCCC3)cc2NC1=O (centres unmarked) [Compound 138, 2-Methyl-6-((methyl(2-oxo-2-(piperidin-1-yl)ethyl)amino)methyl)-2H-benzo[b][1,4]oxazin-3(4H)-one]
1.26 to 10 | CC1Oc2ccc(CN(C)CC(=O)NCC3CCCCC3)cc2NC1=O (centres unmarked) [Compound 140, N-(Cyclohexylmethyl)-2-(methyl((2-methyl-3-oxo-3,4-dihydro-2H-benzo[b][1,4]oxazin-6-yl)methyl)amino)acetamide]
1.26 to 10 | CC1Oc2ccc(-c3cccc(C(=O)O)c3)cc2NC1=O (centres unmarked) [Compound 141, 3-(2-methyl-3-oxo-3,4-dihydro-2H-benzo[b][1,4]oxazin-6-yl)benzoic acid]
1.26 to 10 | CC1Oc2ccc(-c3cccc(C(N)=O)c3)cc2NC1=O (centres unmarked) [Compound 142, 3-(2-Methyl-3-oxo-3,4-dihydro-2H-benzo[b][1,4]oxazin-6-yl)benzamide]
> 10 | CNC(=O)c1cccc(-c2ccc3c(c2)NC(=O)C(C)O3)c1 (centres unmarked) [Compound 143, N-Methyl-3-(2-methyl-3-oxo-3,4-dihydro-2H-benzo[b][1,4]oxazin-6-yl)benzamide]
12.6 to 79.4 | CCNC(=O)c1cccc(-c2ccc3c(c2)NC(=O)C(C)O3)c1 (centres unmarked) [Compound 144, N-Ethyl-3-(2-methyl-3-oxo-3,4-dihydro-2H-benzo[b][1,4]oxazin-6-yl)benzamide]
> 10 | CC1Oc2ccc(-c3cccc(C(=O)N4CCCC4)c3)cc2NC1=O (centres unmarked) [Compound 145, 2-Methyl-6-(3-(pyrrolidine-1-carbonyl)phenyl)-2H-benzo[b][1,4]oxazin-3(4H)-one]
> 10 | CC1Oc2ccc(-c3cccc(C(=O)N4CCOCC4)c3)cc2NC1=O (centres unmarked) [Compound 146, 2-Methyl-6-(3-(morpholine-4-carbonyl)phenyl)-2H-benzo[b][1,4]oxazin-3(4H)-one]
> 10 | CC1Oc2ccc(-c3cccc(C(=O)NCc4ccccc4)c3)cc2NC1=O (centres unmarked) [Compound 147, N-Benzyl-3-(2-methyl-3-oxo-3,4-dihydro-2H-benzo[b][1,4]oxazin-6-yl)benzamide]
> 10 | CC(=O)Nc1cccc(-c2ccc3c(c2)NC(=O)C(C)O3)c1 (centres unmarked) [Compound 148, N-(3-(2-Methyl-3-oxo-3,4-dihydro-2H-benzo[b][1,4]oxazin-6-yl)phenyl)acetamide]
> 10 | CC(C)NS(=O)(=O)c1cccc(-c2ccc3c(c2)NC(=O)C(C)O3)c1 (centres unmarked) [Compound 149, N-Isopropyl-3-(2-methyl-3-oxo-3,4-dihydro-2H-benzo[b][1,4]oxazin-6-yl)benzenesulfonamide]
> 10 | CC1Oc2ccc(-c3ccc(C(N)=O)cc3)cc2NC1=O (centres unmarked) [Compound 150, 4-(2-Methyl-3-oxo-3,4-dihydro-2H-benzo[b][1,4]oxazin-6-yl)benzamide]
> 10 | CNC(=O)c1ccc(-c2ccc3c(c2)NC(=O)C(C)O3)cc1 (centres unmarked) [Compound 151, N-Methyl-4-(2-methyl-3-oxo-3,4-dihydro-2H-benzo[b][1,4]oxazin-6-yl)benzamide]

Kd [µM] | Structure (SMILES)
> 10 | CONC(=O)c1ccc(-c2ccc3c(c2)NC(=O)C(C)O3)cc1 (centres unmarked) [Compound 152, N-Methoxy-4-(2-methyl-3-oxo-3,4-dihydro-2H-benzo[b][1,4]oxazin-6-yl)benzamide]
> 10 | CC1Oc2ccc(-c3ccc(C(=O)NC4CCCCC4)cc3)cc2NC1=O (centres unmarked) [Compound 153, N-Cyclohexyl-4-(2-methyl-3-oxo-3,4-dihydro-2H-benzo[b][1,4]oxazin-6-yl)benzamide]
> 10 | CC1Oc2ccc(-c3ccc(C(=O)N4CCN(C)CC4)cc3)cc2NC1=O (centres unmarked) [Compound 154, 2-Methyl-6-(4-(4-methylpiperazine-1-carbonyl)phenyl)-2H-benzo[b][1,4]oxazin-3(4H)-one]
> 10 | CC(=O)Nc1ccc(-c2ccc3c(c2)NC(=O)C(C)O3)cc1 (centres unmarked) [Compound 155, N-(4-(2-Methyl-3-oxo-3,4-dihydro-2H-benzo[b][1,4]oxazin-6-yl)phenyl)acetamide]
≥ 100 | CC1Oc2ccc(CN3CCN(CC(=O)O)CC3)cc2NC1=O (centres unmarked) [Compound 168, 2-(4-((2-Methyl-3-oxo-3,4-dihydro-2H-benzo[b][1,4]oxazin-6-yl)methyl)piperazin-1-yl)acetic acid]
> 10 | CC1Oc2ccc(CN3CCC(CC(=O)O)CC3)cc2NC1=O (centres unmarked) [Compound 172, 2-(1-((2-Methyl-3-oxo-3,4-dihydro-2H-benzo[b][1,4]oxazin-6-yl)methyl)piperidin-4-yl)acetic acid]
1.26 to 10 | CC(C)CNC(=O)CN1CCN(Cc2ccc3c(c2)NC(=O)C(C)O3)CC1 (centres unmarked) [Compound 173, N-Isobutyl-2-(4-((2-methyl-3-oxo-3,4-dihydro-2H-benzo[b][1,4]oxazin-6-yl)methyl)piperazin-1-yl)acetamide]
1.26 to 10 | C=CCNC(=O)CN1CCN(Cc2ccc3c(c2)NC(=O)C(C)O3)CC1 (centres unmarked) [Compound 174, N-Allyl-2-(4-((2-methyl-3-oxo-3,4-dihydro-2H-benzo[b][1,4]oxazin-6-yl)methyl)piperazin-1-yl)acetamide]
> 10 | CCCNC(=O)CN1CCN(Cc2ccc3c(c2)NC(=O)C(C)O3)CC1 (centres unmarked) [Compound 175, 2-(4-((2-Methyl-3-oxo-3,4-dihydro-2H-benzo[b][1,4]oxazin-6-yl)methyl)piperazin-1-yl)-N-propylacetamide]
> 10 | CC1Oc2ccc(CN3CCN(CC(=O)NC4CC4)CC3)cc2NC1=O (centres unmarked) [Compound 176, N-Cyclopropyl-2-(4-((2-methyl-3-oxo-3,4-dihydro-2H-benzo[b][1,4]oxazin-6-yl)methyl)piperazin-1-yl)acetamide]
> 10 | COCCNC(=O)CN1CCN(Cc2ccc3c(c2)NC(=O)C(C)O3)CC1 (centres unmarked) [Compound 177, N-(2-Methoxyethyl)-2-(4-((2-methyl-3-oxo-3,4-dihydro-2H-benzo[b][1,4]oxazin-6-yl)methyl)piperazin-1-yl)acetamide]
> 10 | CCNC(=O)CN1CCN(Cc2ccc3c(c2)NC(=O)C(C)O3)CC1 (centres unmarked) [Compound 178, N-Ethyl-2-(4-((2-methyl-3-oxo-3,4-dihydro-2H-benzo[b][1,4]oxazin-6-yl)methyl)piperazin-1-yl)acetamide]
> 10 | CC(C)NC(=O)CN1CCN(Cc2ccc3c(c2)NC(=O)C(C)O3)CC1 (centres unmarked) [Compound 179, N-Isopropyl-2-(4-((2-methyl-3-oxo-3,4-dihydro-2H-benzo[b][1,4]oxazin-6-yl)methyl)piperazin-1-yl)acetamide]
> 10 | CC1Oc2ccc(CN3CCN(CC(=O)NCC4CC4)CC3)cc2NC1=O (centres unmarked) [Compound 180, N-(Cyclopropylmethyl)-2-(4-((2-methyl-3-oxo-3,4-dihydro-2H-benzo[b][1,4]oxazin-6-yl)methyl)piperazin-1-yl)acetamide]
> 10 | CC1Oc2ccc(CN3CCN(CC(=O)NS(C)(=O)=O)CC3)cc2NC1=O (centres unmarked) [Compound 181, 2-(4-((2-Methyl-3-oxo-3,4-dihydro-2H-benzo[b][1,4]oxazin-6-yl)methyl)piperazin-1-yl)-N-(methylsulfonyl)acetamide]
12.6 to 79.4 | CNC(=O)CC1CCN(Cc2ccc3c(c2)NC(=O)C(C)O3)CC1 (centres unmarked) [Compound 182, N-Methyl-2-(1-((2-methyl-3-oxo-3,4-dihydro-2H-benzo[b][1,4]oxazin-6-yl)methyl)piperidin-4-yl)acetamide]
> 10 | CC1Oc2ccc(CCCO)cc2NC1=O (centres unmarked) [Compound 188, 6-(3-Hydroxypropyl)-2-methyl-2H-benzo[b][1,4]oxazin-3(4H)-one]
